# Experimental data published in patent US20200178527A1, “Method for Promoting Growth and Preservation Quality of Agaricus Bisporus” (Nanjing University of Finance & Economics, priority 2018, published 2020).
# Tests used:
# Agaricus bisporus [1] = test: Growth of Agaricus bisporus after spraying MeJA solution at mushroom bud stage; assay type: in vivo; conditions: for Diameter of Pileus / Diameter of Stipe / Thickness of Pileus / Weight: 30 mL/m^2 spray
# Description: Experiment of promoting the growth and preservation quality of Agaricus bisporus (1) An ethanol-water solvent with an ethanol concentration (by volume fraction) of 2% was prepared, and then the methyl jasmonate (MeJA) was dissolved in the ethanol-water solvent to prepare MeJA solutions at concentrations respectively of 10, 50, 100, and 200 μmol/L.
# (2) The aforementioned MeJA solutions were each used as an inducer and poured into an automatic spraying device, and were each uniformly sprayed onto the surface of Agaricus bisporus when it was grown to the mushroom bud stage, where the spraying dose of 30 mL/m^2 was used as the treatment group. At the same time, the treatments with water and a 2% ethanol solution were as a blank group and a control group, respectively. The subsequent culturing conditions were 17° C. and a humidity of 90%.
# (3) Photographing and sampling are performed every 24 h during the treatment. After sampling, the weight (m) of a single mushroom was weighed and recorded, and the diameter of pileus (a), the diameter of stipe (b) and the thickness of pileus (c) were measured with a microcalliper and recorded to calculate the average values, and the results were shown in Table 1.
# Agaricus bisporus [2] = test: Post-harvest storage (preservation quality) of Agaricus bisporus at 4° C., relative humidity 90-95%; assay type: in vivo
# Description: Experiment of promoting the growth and preservation quality of Agaricus bisporus (1) An ethanol-water solvent with an ethanol concentration (by volume fraction) of 2% was prepared, and then the methyl jasmonate (MeJA) was dissolved in the ethanol-water solvent to prepare MeJA solutions at concentrations respectively of 10, 50, 100, and 200 μmol/L. (2) The aforementioned MeJA solutions were each used as an inducer and poured into an automatic spraying device, and were each uniformly sprayed onto the surface of Agaricus bisporus when it was grown to the mushroom bud stage, where the spraying dose of 30 mL/m^2 was used as the treatment group. At the same time, the treatments with water and a 2% ethanol solution were as a blank group and a control group, respectively. The subsequent culturing conditions were 17° C. and a humidity of 90%. The Agaricus bisporus was stored under conditions of 4° C. and a relative humidity of 90-95% after harvested, so as to observe its appearance and quality, and the results were as shown in FIG. 2.
# [3] = 10 μM MeJA, day 1 after treatment
# [4] = 10 μM MeJA, day 2 after treatment
# [5] = 50 μM MeJA, day 1 after treatment
# [6] = 50 μM MeJA, day 2 after treatment
# [7] = 100 μM MeJA, day 1 after treatment
# [8] = 100 μM MeJA, day 2 after treatment
# [9] = 200 μM MeJA, day 1 after treatment
# [10] = 200 μM MeJA, day 2 after treatment
# [11] = methyl jasmonate solution of 10-200 μmol/l sprayed at mushroom bud stage
structure (smiles),measurement,setting,value
"CC/C=C\CC1C(=O)CCC1CC(=O)OC (stereo not drawn) [MeJA, methyl jasmonate]",Diameter of Pileus,Agaricus bisporus [1]; [3],20.21 ± 0.67 mm
same,Diameter of Stipe,Agaricus bisporus [1]; [3],12.60 ± 0.91 mm
same,Thickness of Pileus,Agaricus bisporus [1]; [3],12.07 ± 0.48 mm
same,Weight,Agaricus bisporus [1]; [3],3.83 ± 0.01 g
same,Diameter of Pileus,Agaricus bisporus [1]; [4],37.04 ± 0.47 mm
same,Diameter of Stipe,Agaricus bisporus [1]; [4],18.17 ± 0.60 mm
same,Thickness of Pileus,Agaricus bisporus [1]; [4],21.49 ± 0.50 mm
same,Weight,Agaricus bisporus [1]; [4],16.27 ± 0.27 g
same,Diameter of Pileus,Agaricus bisporus [1]; [5],24.29 ± 0.75 mm
same,Diameter of Stipe,Agaricus bisporus [1]; [5],13.91 ± 0.66 mm
same,Thickness of Pileus,Agaricus bisporus [1]; [5],14.80 ± 0.49 mm
same,Weight,Agaricus bisporus [1]; [5],6.81 ± 0.09 g
same,Diameter of Pileus,Agaricus bisporus [1]; [6],39.01 ± 0.67 mm
same,Diameter of Stipe,Agaricus bisporus [1]; [6],18.76 ± 0.38 mm
same,Thickness of Pileus,Agaricus bisporus [1]; [6],22.29 ± 0.21 mm
same,Weight,Agaricus bisporus [1]; [6],20.34 ± 0.20 g
same,Diameter of Pileus,Agaricus bisporus [1]; [7],20.52 ± 0.33 mm
same,Diameter of Stipe,Agaricus bisporus [1]; [7],14.14 ± 0.35 mm
same,Thickness of Pileus,Agaricus bisporus [1]; [7],12.28 ± 0.32 mm
same,Weight,Agaricus bisporus [1]; [7],3.69 ± 0.06 g
same,Diameter of Pileus,Agaricus bisporus [1]; [8],31.97 ± 0.78 mm
same,Diameter of Stipe,Agaricus bisporus [1]; [8],16.30 ± 0.82 mm
same,Thickness of Pileus,Agaricus bisporus [1]; [8],18.73 ± 0.82 mm
same,Weight,Agaricus bisporus [1]; [8],11.18 ± 0.10 g
same,Diameter of Pileus,Agaricus bisporus [1]; [9],20.79 ± 0.57 mm
same,Diameter of Stipe,Agaricus bisporus [1]; [9],13.56 ± 0.83 mm
same,Thickness of Pileus,Agaricus bisporus [1]; [9],12.70 ± 0.19 mm
same,Weight,Agaricus bisporus [1]; [9],3.48 ± 0.14 g
same,Diameter of Pileus,Agaricus bisporus [1]; [10],30.71 ± 0.69 mm
same,Diameter of Stipe,Agaricus bisporus [1]; [10],17.94 ± 0.39 mm
same,Thickness of Pileus,Agaricus bisporus [1]; [10],17.5 ± 0.48 mm
same,Weight,Agaricus bisporus [1]; [10],10.10 ± 0.14 g
same,effect on growth of Agaricus bisporus,"Agaricus bisporus [1]; 10-100 μmol/L, compared with blank group and ethanol group (FIG. 1, Table 1)",significant effect of promoting the growth
same,improvement of yield,Agaricus bisporus [1]; [11],20%-25%
same,preserving effect on Agaricus bisporus,"Agaricus bisporus [2]; 10-200 μmol/L, compared with blank group and ethanol group, storage at 4° C., RH 90-95% (FIG. 2)",significant preserving effect
same,extension of post-harvest storage time,Agaricus bisporus [2]; [11],2 to 4 days
